Data set [1] in a line: Protonation constants by potentiometric titration. Type of data set: physicochemical. The note with it: I=0.1 M KCl, 25° C.
Experimental: Potentiometric Titrations. Stability constant measurements were carried out by titrating an aqueous solution (˜15 mL) of ligand (˜1 mM), metal (˜1 mM), and HCl (˜10 mM) with standardized KOH (0.1 M). The ionic strength of the solution was maintained at 0.1 M using KCl. The titration method employed a 0.1 mV/min drift limit with a minimum and maximum wait time of 0 s and 300 s respectively between addition of KOH aliquots (0.015 mL volume increments). […] The titration data within the pH range of 2.2-11.3 were analyzed using Hyperquad2013 software. The stability constants were calculated from the average of three independent titrations (using three independently prepared ligand stock solutions from three independent synthetic preparations of ligands).
A short description of data set [2]: Thermodynamic stability constants of barium complexes by potentiometric titration. As to conditions: for pBa (−log [M]free): [M]tot = 10^−6 M, [L]tot = 10^−5 M; for pBa (−log [M]free) / log KBa′ (conditional stability constant): pH 7.4, 25° C., I = 0.1M KCl.
Experimental: Thermodynamic stability studies.
(§1) Potentiometric Titrations. Stability constant measurements were carried out by titrating an aqueous solution (˜15 mL) of ligand (˜1 mM), metal (˜1 mM), and HCl (˜10 mM) with standardized KOH (0.1 M). The ionic strength of the solution was maintained at 0.1 M using KCl. The titration method employed a 0.1 mV/min drift limit with a minimum and maximum wait time of 0 s and 300 s respectively between addition of KOH aliquots (0.015 mL volume increments). No metal hydroxide precipitation was observed within the pH range and concentration employed. […] The stability constants were calculated from the average of three independent titrations (using three independently prepared ligand stock solutions from three independent synthetic preparations of ligands).
Data set [3] can be described thus: Thermodynamic stability constants of lanthanum complexes by potentiometric titration. As to conditions: for pLa (−log [M]free): [M]tot = 10^−6 M, [L]tot = 10^−5 M; for pLa (−log [M]free) / log KLa′ (conditional stability constant): pH 7.4, 25° C., I = 0.1M KCl; for ranking of log KLaL of lanthanum-ligand complexes: equimolar La^3+; for ranking of log KLaL of lanthanum-ligand complexes / stability of complexes with La^3+ (in words): potentiometric titration.
Experimental: Thermodynamic stability studies.
as §1

The conditions of data set [4]: pH 7.4.
Experimental: Thermodynamic stability studies.
as §1
For data set [5] the following is noted: pH 7.4. This is another data set of the same source.
Experimental: Thermodynamic stability studies.
as §1
The format of data set [6] is physicochemical. As to the method:
H2BZmacropa-NCS Hydrolysis. The stability of BZmacropa-NCS^2— towards hydrolysis was tested as the followings. A solution (1 mL) of H2BZmacropa-NCS (≈1.5 mM) was prepared in 0.1 M Na2CO3/NaHCO3pH 9.1 buffer and stored at room temperature (≈23±1° C.) in a vial covered with aluminum foil. This solution was analyzed periodically by analytical HPLC (method quick-MeCN, 5 μL aliquots) for over a week.

Another data set addresses T1, human GPC3 protein (Homo sapiens, UniProt P51654).
T1 construct: biotin (biotinylated); purchased Acro Biosystems, Newark, DE
As to the kind of experiment: Binding affinity by bio-layer interferometry (BLI). As to conditions: immobilized biotinylated human GPC3, antibody 0-25 nM, global fit. In general terms: In BLI a coated tip is dipped into the sample, and binding shifts an interference pattern.

Data set [7] is classed as in vivo, mice. As to the method:
Biodistribution. […] At 48 and 96 h post-injection, mice (n=3-4 per time point) were euthanized. Their organs were harvested and weighed, then counted on a gamma counter after allowing 24 h for ^225Ac daughters to equilibrate. The activity in each organ was decay-corrected using a standard of known activity prepared at the same time as the injections. Radiotracer uptake in each organ was calculated by dividing the % injected activity (% IA) in each organ by the organ's weight. Measurement errors are reported as the standard deviation of the % IA/g values (FIGS. 2A-2B).

From patent publication US20240261444A1, “RIGIDIFIED MACROCYCLES, COMPLEXES WITH RADIONUCLIDES, AND USE IN TARGETED RADIOTHERAPY OF CANCER” (Cornell University, priority 2021, published 2024) come the findings set out here.

By Kd is commonly meant a measure of binding affinity in units of concentration.

Like-named read-outs stand apart in the source and are kept apart here.

Experimental for human GPC3 protein: Biotinylated human GPC3 protein (Acro Biosystems, Newark, DE) was diluted to 1 μg/mL in assay buffer: 1×PBS with 0.02% Tween-20 and 0.1% acetylated BSA (Electron Microscopy Sciences, Hatfield, PA) in a 96-well plate and loaded onto streptavidin biosensors (ForteBio, Menlo Park, CA). Antibodies were diluted in assay buffer at 4 concentrations from 0-25 nM and loaded into a 96-well plate (final volume of 200 μL). GPC3 was loaded to a density of 0.3 to avoid avidity affects. Reference wells containing buffer only, GPC3-only and antibody only were used as blanks. Plates were run on an Octet Red96 system (FortéBio, Menlo Park, CA) and analyzed with ForteBio Octet Data Analysis software (v.11). […] The combined association and dissociation kinetic data across all concentrations were fit using the global fitting model in the Octet Analysis Studio software.

In the case of `O=C(O)CN1CCN(CC(=O)O)CCN(CC(=O)O)CCN(CC(=O)O)CC1` [DOTA], in data set [1], the “log K1 (protonation constant)” value stood at 11.14, the “log K2 (protonation constant)” value was found to be 9.69, the “log K3 (protonation constant)” value worked out at 4.85 and the “log K4 (protonation constant)” value was 3.95. In addition, the “log KBaL” value in data set [2] (I=0.1 M KCl, 25° C.) is on record as 11.75. In data set [2], the “pBa (−log [M]free)” value worked out at 6.76 and the “log KBa′ (conditional stability constant)” value (from here on “log KBa′”) worked out at 5.72. In data set [3] (I=0.1 M KCl, 25° C.), the “log KLaL” value is listed as 21.7. For the same compound, in data set [3], the “pLa (−log [M]free)” value was determined as 16.62 and the “log KLa′ (conditional stability constant)” value (shortened to “log KLa′”) was 15.67.
For `O=C(O)CN(CCN(CC(=O)O)CC(=O)O)CCN(CC(=O)O)CC(=O)O` [DTPA], in data set [1], the “log K1 (protonation constant)” value is on record as 10.34, the “log K2 (protonation constant)” value worked out at 8.59, the “log K3 (protonation constant)” value is on record as 4.25 and the “log K4 (protonation constant)” value was 2.71. In addition, the “log K5 (protonation constant)” value in data set [1] came out at 2.18. Moreover, in data set [2] (I=0.1 M KCl, 25° C.), the “log KBaHL” value worked out at 5.34 and the “log KBaL” value turned out to be 8.78. In addition, the “pBa (−log [M]free)” value in data set [2] worked out at 6.15. Besides, the “log KLaL” value in data set [3] (I=0.1 M KCl, 25° C.) came to 19.48. Also, the “pLa (−log [M]free)” value in data set [3] came out at 16.28. Besides, the “log KLa′” value in data set [4] is on record as 15.32. Also, the “log KBa′” value in data set [5] worked out at 4.63.
For `O=C(O)CN(CCN(CC(=O)O)CC(=O)O)CC(=O)O` [EDTA], in data set [1], the “log K1 (protonation constant)” value amounted to 10.19, the “log K2 (protonation constant)” value is reported as 6.13, the “log K3 (protonation constant)” value is listed as 2.69 and the “log K4 (protonation constant)” value is on record as 2.00. Also, the “log KBaL” value in data set [2] (I=0.1 M KCl, 25° C.) was 7.80. Also, in data set [2], the “pBa (−log [M]free)” value is 6.28 and the “log KBa′” value was 4.99. The “log KLaL” value in data set [3] (I=0.1 M KCl, 25° C.) is given as 15.46. In data set [3], the “pLa (−log [M]free)” value was determined as 13.60 and the “log KLa′” value is on record as 12.65.
Turning to `O=C(O)c1cccc(CN2CCOc3ccccc3OCCN(Cc3cccc(C(=O)O)n3)CCOc3ccccc3OCC2)n1` [H2BZ2macropa, 6,6′-((6,7,9,10,17,18,20,21-octahydro-8H,19H-dibenzo[b,k][1,4,10,13]tetraoxa[7,16]diazacyclooctadecine-8,19-diyl)bis(methylene))dipicolinic acid], in data set [3], the “ranking of log KLaL of lanthanum-ligand complexes” value was “H2macropa>H2BZmacropa>H2BZ2macropa” and the “stability of complexes with La^3+ (in words)” value is listed as “form highly stable complexes with La^3+”.
In the case of `O=C(O)c1cccc(CN2CCOCCOCCN(Cc3cccc(C(=O)O)n3)CCOc3ccccc3OCC2)n1` [H2BZmacropa, 6,6′-((2,3,5,6,8,9,11,12,14,15-decahydro-4H,13H-benzo[b][1,4,10,13]tetraoxa[7,16]diazacyclooctadecine-4,13-diyl)bis(methylene))dipicolinic acid], in data set [1], the “log K1 (protonation constant)” value is 7.06, the “log K2 (protonation constant)” value is reported as 6.41, the “log K3 (protonation constant)” value came out at 3.33 and the “log K4 (protonation constant)” value turned out to be 2.49. For the same compound, in data set [2] (I=0.1 M KCl, 25° C.), the “log KBaHL” value is 3.56 and the “log KBaL” value was determined as 9.09. In addition, in data set [2], the “pBa (−log [M]free)” value was determined as 9.87 and the “log KBa′” value came out at 8.91. In data set [3] (I=0.1 M KCl, 25° C.), the “log KLaL” value was determined as 13.98. Also, in data set [3], the “ranking of log KLaL of lanthanum-ligand complexes” value is listed as “H2macropa>H2BZmacropa>H2BZ2macropa” and the “stability of complexes with La^3+ (in words)” value was “form highly stable complexes with La^3+”.
For `O=C(O)c1cccc(CN2CCOCCOCCN(Cc3cc(N=C=S)cc(C(=O)O)n3)CCOCCOCC2)n1` [H2macropa-NCS], the “time for complete hydrolysis” value in data set [6] (0.1 M Na2CO3/NaHCO3 pH 9.1 buffer, room temperature) is given as “more than a week's time”. For the same compound, in data set [6] (buffer, pH 9.1), the “half-life of hydrolysis of the thiocyanate functional group” value was 56 h.
For the compound `O=C(O)c1cccc(CN2CCOCCOCCN(Cc3cccc(C(=O)O)n3)CCOCCOCC2)n1` [H2macropa], in data set [1], the “log K1 (protonation constant)” value worked out at 7.41, the “log K2 (protonation constant)” value was found to be 6.90, the “log K3 (protonation constant)” value is 3.23 and the “log K4 (protonation constant)” value is reported as 2.45. Further, in data set [2] (I=0.1 M KCl, 25° C.), the “log KBaH2L” value was found to be 2.49, the “log KBaHL” value is given as 3.76 and the “log KBaL” value is reported as 11.11. For the same compound, in data set [2], the “pBa (−log [M]free)” value was found to be 11.69 and the “log KBa′” value is listed as 10.74. Further, in data set [3] (I=0.1 M KCl, 25° C.), the “log KLaHL” value stood at 2.28 and the “log KLaL” value is on record as 14.99. For the same compound, in data set [3], the “pLa (−log [M]free)” value came out at 15.58, the “ranking of log KLaL of lanthanum-ligand complexes” value is “H2macropa>H2BZmacropa>H2BZ2macropa” and the “log KLa′” value amounted to 14.63.
As for GC33-BZM: "GC33-BZmacropa conjugate", the Kd in the data set with human GPC3 protein was found to be 0.19 nM. That is a sub-nanomolar value.
As to “^225Ac[Ac]-GC33-BZM: "The radioconjugate ^225Ac[Ac]-GC33-BZM"”, the “tumor targeting compared with ^225Ac[Ac]-GC33-M” value in data set [7] (mice, intravenous 100 nCi, 48 and 96 h) is “no significant difference”. Besides, the tumor uptake result in data set [7] (mice, intravenous 100 nCi, 48 and 96 h post-injection) was “clear, specific tumor uptake at both 48 and 96 h post-injection, with tumor signal greater than that of all organs at both time points”. The “off-target accumulation in liver and femur compared with ^225Ac[Ac]-GC33-M” value in data set [7] (mouse, in vivo) was “higher than that of ^225Ac[Ac]-GC33-M in both the liver and femur at 48 h”.
